Patent US20230165970A1, “COMPOSITIONS AND METHODS FOR THE TREATMENT OF BACTERIAL INFECTIONS” (priority 2017, published 2023)
Values after ≈ are worked out from the molar mass of the structure shown. *1 amine or outer side, *2 acyl side, *3 side chain or, on linkers, in order; H or OH if unused. Where a SMILES comes first, the peptide text is derived from it. Bridges are numbered along the chain shown (N, C = ends). [ ]: non-standard residue; d: D form. The star is where a group is joined. X2 = O=C([C@@H](N[*:1])[C@H](O)CCC(F)(F)F)[*:2]; Propargyl(OCH2CH2)4CO = C#CCOCCOCCOCCOCCC(=O)*; X3 = CCCCC[C@@H](O)[C@H](N[*:1])C(=O)[*:2]; azaDab = NCCN(N[*:1])C(=O)[*:2]; Aoc(2) = CCCCCC[C@H](N)C(=O)O; hLeu = CC(C)CC[C@H](N)C(=O)O; Dab = NCC[C@H](N)C(=O)O; azaGly = NNC(=O)O

What was measured:
[1] = test system: A. baumannii AB5075; assay: Murine pneumonia model vs. A. baumannii AB5075 (survival); assay type: in vivo, C57BI/6J mice; conditions: 1×10^8 CFU; for protection against lethal challenge (survival monitored 5 days): 5 mg/kg IV twice at t=+1 h and +4 h, n=5 (FIG. 118)
Protocol: The murine pneumonia model was adapted from Lin et al., 2015 (PMID: 26288841). A. baumannii AB5075 was grown to log-phase in LB at 37° C., 200 rpm shaking. Bacteria were washed once with PBS via centrifugation at 4,000 rpm. Bacteria were adjusted to the desired concentration in PBS.
Prior to infection, 8-week-old female C57BI/6J mice (Jackson Labs) were anesthetized with 100 mg/kg ketamine and 10 mg/kg xylazine. Using an otoscope, mice were infected non-invasively directly into the trachea.
Mice were infected with 5×10^7 CFU in 30 μL of PBS. Mice were treated intraperitoneally with different doses of conjugate 23 or hIgG1 (50 mpk) at t=−12 h pre-infection and t=+1 h post-infection or with colistin (10 mpk) or PBS at t=+1 h, 5 h, 24 h, 36 h, 48 h and 60 h post-infection.
Survival of mice (n=5 per group) was monitored for 5 days. […] Colistin was used as positive control resulting in 80% protection.
The murine pneumonia model was adapted from Lin et al., 2015 (PMID: 26288841). A. baumannii AB5075 was grown to log-phase in LB at 37° C., 200 rpm shaking. Bacteria were washed once with PBS via centrifugation at 4,000 rpm. Bacteria were adjusted to the desired concentration in PBS. Prior to infection, 8-week-old female C57BI/6J mice (Jackson Labs) were anesthetized with 100 mg/kg ketamine and 10 mg/kg xylazine. Using an otoscope, mice were infected non-invasively directly into the trachea.
Mice were infected with 5×10^7 CFU in 30 μL of PBS. Mice were treated intraperitoneally with conjugate 34 or hIgG1 (50 mpk) at t=−12 h pre-infection.
Survival of mice (n=4 per group) was monitored for 5 days. A single dose of ADC conjugate 34 was protective (75% survival) against a lethal challenge with A. baumannii AB5075.
The murine pneumonia model was adapted from Lin et al., 2015 (PMID: 26288841). A. baumannii AB5075 was grown to log-phase in LB at 37° C., 200 rpm shaking. Bacteria were washed once with PBS via centrifugation at 4,000 rpm. Bacteria were adjusted to desired concentration in PBS. […]
The survival (n=5 per group) was monitored twice daily for 5 days. […]

[2] = test system: A. baumannii AB5075; assay type: cell-based
Protocol: (§1) Overnight stationary-phase cultures were centrifuged at 3,500×g for 10 min at room temperature and resuspended in 1×PBS to an optical density at 600 nm (OD600) of 0.4 (1×10^8 colony forming units [CFU]/ml) in RPMI with L-glutamine and phenol red (Life Technologies). Bacteria were diluted 1:25 in RPMI ([…]) and 10 ul added to wells of a non-binding 96-well plate (Corning 3641) containing 80 ul of 50% hirudin anti-coagulated blood (complement active) in RPMI. […] MBC was defined as the minimum conjugate concentration required for bacterial clearance (Table 8A and Table 8B). An untreated growth control (40% blood, 0 ug/ml conjugate) was included in all assays as a growth comparator.
(§2) MBC was defined as the minimum compound concentration required for complete bacterial clearance (Table 18).
(§3) In most cases, 2-4 fold improvements in antibacterial activity for the conjugates are observed in the presence of complement active human blood.

[3] = test system: E. coli ATCC 25922; assay type: cell-based
Protocol: as §1, §2, §3

[4] = test system: P. aeruginosa PAO1; assay type: cell-based
Protocol: as §1, §2, §3

[5] = test system: E. coli 25922; conditions: (A) Bacteremia (E. coli); 5 mg/kg IV, single, +1 hr; survival after three days; N=3
Protocol: In vivo screening of selected compounds was accomplished in an E. coli bacteremia model (N=3). Efficacy was assessed in an animal model of infection using CD-1 mice by evaluating bacteremia in immune competent mice challenged with 2× the LD95 of E. coli 25922 (dosed qd, intraperitoneally (IP) at T+1 hour, survival endpoint).
Colistin (COL) and Int-17 were dosed at 0.3 mg/kg and Int-41 was dosed at 3.0 mg/kg. Percent survival was determined 72 hours after bacterial challenge. Compounds with MICs against E. coli 25922 of less than 4 μg/ml were evaluated in the bacteremia model.
Int-115 and Int-118 were evaluated for potency in a lethal model of bacteremia. […] Test articles were dissolved in 1× PBS and injected IV at a dose volume of 10 ml/kg one hour following bacterial challenge. Animals were monitored twice daily and mortality scored over three days.
CD-1 mice were used for bacteremia, C57BL/6J mice for endotoxemia. The endpoint was survival after three days for both models.

Row | SMILES | protection against lethal challenge (survival monitored 5 days) [1] | MBC in blood AB 5075 [2] [µg/mL] | MBC in blood EC 25922 [3] [µg/mL] | MBC in blood PA 01 [4] [µg/mL] | % survival [5] [%] | survival (monitored 5 days) ([1]; 10 mg/kg IV twice at t=+1 h and +4 h, n=5 (FIG. 119)) [%]
1 | C#CCOCCOCCOCCOCCC(=O)N[C@@H](CCCCCC)C(=O)N[C@@H](CCN)C(=O)N[C@H](C(=O)N[C@@H](CCN)C(=O)N[C@H]1CCNC(=O)[C@H]([C@@H](C)O)NC(=O)[C@H](CCN)NC(=O)[C@H](CCN)NC(=O)[C@H](CC(C)C)NC(=O)[C@@H](Cc2ccccc2)NC(=O)[C@H](CCN)NC1=O)[C@H](O)CCC(F)(F)F [Int-118] ({Propargyl(OCH2CH2)4CO}-[Aoc(2)][Dab][X2][Dab][Dab][Dab][dF]L[Dab][Dab]T; lactam 5-C) | 40% | 0.025 (≈ 0.0164 µM) | 0.05 (≈ 0.0327 µM) | >0.2 | 66 | –
2 | C#CCOCCOCCOCCOCCC(=O)N[C@@H](CCC(C)C)C(=O)N[C@@H](CCN)C(=O)N[C@H](C(=O)NNC(=O)N[C@H]1CCNC(=O)[C@H]([C@@H](C)O)NC(=O)[C@H](CCN)NC(=O)[C@H](CCN)NC(=O)[C@H](CC(C)C)NC(=O)[C@@H](Cc2ccccc2)NC(=O)[C@H](CCN)NC1=O)[C@H](O)CCCCC [Int-116] ({Propargyl(OCH2CH2)4CO}-[hLeu][Dab][X3][azaGly][Dab][Dab][dF]L[Dab][Dab]T; lactam 5-C) | fully protective | 0.05 (≈ 0.0346 µM) | 0.2 (≈ 0.138 µM) | >0.2 | – | –
3 | C#CCOCCOCCOCCOCCC(=O)N[C@@H](CCC(C)C)C(=O)N[C@@H](CCN)C(=O)N[C@H](C(=O)NN(CCN)C(=O)N[C@H]1CCNC(=O)[C@H]([C@@H](C)O)NC(=O)[C@H](CCN)NC(=O)[C@H](CCN)NC(=O)[C@H](CC(C)C)NC(=O)[C@@H](Cc2ccccc2)NC(=O)[C@H](CCN)NC1=O)[C@@H](C)O [Int-127] ({Propargyl(OCH2CH2)4CO}-[hLeu][Dab]T[azaDab][Dab][Dab][dF]L[Dab][Dab]T; lactam 5-C) | – | 0.1 (≈ 0.0697 µM) | 0.025 (≈ 0.0174 µM) | 0.1 (≈ 0.0697 µM) | – | –
4 | C#CCOCCOCCOCCOCCC(=O)N[C@@H](CCCCCC)C(=O)N[C@@H](CCN)C(=O)N[C@H](C(=O)NN(CCN)C(=O)N[C@H]1CCNC(=O)[C@H]([C@@H](C)O)NC(=O)[C@H](CCN)NC(=O)[C@H](CCN)NC(=O)[C@H](CC(C)C)NC(=O)[C@@H](Cc2ccccc2)NC(=O)[C@H](CCN)NC1=O)[C@@H](C)O [Int-129] ({Propargyl(OCH2CH2)4CO}-[Aoc(2)][Dab]T[azaDab][Dab][Dab][dF]L[Dab][Dab]T; lactam 5-C) | – | – | – | – | – | 60
